Data from US20250206751A1, “HETEROCYCLIC COMPOUND FOR INDUCING DEGRADATION OF G12D MUTANT KRAS PROTEIN” (Astellas Pharma Inc., priority 2022, published 2025).
pIC50: −log10 of the molar value.

How the values were obtained:
KRAS G12D protein = target: T1, KRAS G12D protein (Homo sapiens, UniProt P01116, G12D); assay: KRAS degradation activity by Cell ELISA in AsPC-1 (Test Example 1); type: cell-based; conditions: AsPC-1 cells, cultured overnight with compound, corrected with β-actin, read-out: DC50 (50% degradation concentration of the amounts of KRAS)
T1 construct: host or cells: AsPC-1
Summary of the method: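 AsPC-1 cells (KRAS G12D), 2.0×10^4/well, treated overnight with compound (10 points, 10 μM–0.3 nM final) in RPMI 1640/10% FBS. Fixed cells immunostained for G12D-specific Ras and β-actin, with near-IR fluorescence read. Ras/actin ratio scaled DMSO = 0% and actin-only = 100%, and DC50 fitted by Sigmoid-Emax regression.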

[1] = system: phosphorylation of threonine 202 (Thr202) and tyrosine 204 (Tyr204) of ERK; assay: ERK phosphorylation inhibitory effect by Cell ELISA in AsPC-1 (Test Example 2); type: cell-based, human; conditions: Homo sapiens, ASPC1, AsPC-1 cells, cultured overnight with compound; 1 μM trametinib taken as 0%
Summary of the method: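 AsPC-1 cells (G12D KRAS) treated overnight with compound (10 points, 10 μM to 0.3 nM final), then glyoxal-fixed and immunostained for phospho-ERK with a fluorescent secondary read at 800 nm. IC50 by Sigmoid-Emax regression, with DMSO as 100% and 1 μM trametinib as 0%.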

[2] = system: human G12D mutant KRAS-positive pancreatic cancer line AsPC-1; assay: Non-anchorage-dependent cell growth inhibition, spheroid 3D cell culture (Test Example 3); type: cell-based; conditions: Homo sapiens, ASPC1, 144 h, AsPC-1 spheroid 3D culture, 6 days, CellTiter Glo 2.0
Summary of the method: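 AsPC-1 spheroids, 5×10^2 cells per well on low-adhesion round-bottom plates in RPMI 1640/10% FBS, dosed next day at 10 or 6 points spanning 10 μM to 0.3 nM final for 6 days at 37° C., 5% CO2. Viability by CellTiter Glo 2.0 luminescence; IC50 by Sigmoid-Emax regression, DMSO 100% and cell-free medium 0%.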

T1 sequence (P01116 1-188 isoform P01116-2 G12D): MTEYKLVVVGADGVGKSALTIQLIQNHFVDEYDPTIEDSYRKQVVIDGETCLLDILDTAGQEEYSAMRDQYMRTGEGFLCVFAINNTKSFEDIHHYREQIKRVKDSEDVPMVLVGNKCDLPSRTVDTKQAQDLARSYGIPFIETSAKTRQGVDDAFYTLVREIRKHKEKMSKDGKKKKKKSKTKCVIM

Row | DC50 (KRAS G12D protein) [nM] | pIC50 [1] | pIC50 [2] | Compound
1 | 99 | 8.15 | 8.15 | CO[C@@H](C)COc1nc(N(C)[C@H]2CCNC2)c2cc(C3CC3)c(-c3c(C)c(F)cc4[nH]ncc34)c(OCc3ccc(-c4cn([C@H](C(=O)N5C[C@H](O)C[C@H]5C(=O)N[C@@H](CO)c5ccc(N6CCOC6=O)cc5)C(C)C)nn4)cc3)c2n1 (atropisomer, axis not shown) [Example 15]
2 | 18 | 8.10 | 8.22 | Cc1ncsc1-c1ccc([C@H](CO)NC(=O)[C@@H]2C[C@@H](O)CN2C(=O)[C@H](C(C)C)n2cc(-c3ccc(COc4c(-c5c(C)c(F)cc6[nH]ncc56)c(C5CC5)cc5c(N(C)[C@H]6CCNC6)nc(OC[C@@H]6CCCO6)nc45)cc3)nn2)cc1 (atropisomer, axis not shown; (M)) [Example 10, (4R)-1-[(2S)-2-{4-[4-({[(7M) 6-cyclopropyl-7-(6-fluoro-5-methyl-1H-indazol-4-yl)-4-{methyl[(3S)-pyrrolidin-3-yl]amino}-2-{[(2S)-oxolan-2-yl]methoxy}quinazolin-8-yl}oxy}methyl)phenyl]-1H-1,2,3-triazol-1-yl}-3-methylbutanoyl]-4-hydroxy-N-{(1R)-2-hydroxy-1-[4-(4-methyl-1,3-thiazol-5-yl)phenyl]ethyl}-L-prolinamide]
3 | 22 | 8.70 | 8.52 | CCn1nccc1-c1ccc([C@H](CO)NC(=O)[C@@H]2C[C@@H](O)CN2C(=O)[C@H](C(C)C)n2cc(-c3ccc(COc4c(-c5c(C)c(F)cc6[nH]ncc56)c(C5CC5)cc5c(N(C)[C@H]6CCNC6)nc(OC[C@@H]6CCCO6)nc45)cc3)nn2)cc1 (atropisomer, axis not shown) [Example 26]
4 | 40 | 8.05 | 7.64 | Cc1ncsc1-c1ccc([C@H](CO)NC(=O)[C@@H]2C[C@@H](O)CN2C(=O)[C@H](C(C)C)n2cc(-c3ccc(COc4c(-c5c(C)c(F)cc6[nH]ncc56)c(C5CC5)cc5c(N[C@@H]6CNC[C@@H]6O)nc(OC6CCOCC6)nc45)cc3)nn2)cc1 (atropisomer, axis not shown) [Example 7]
5 | 508 | 7.00 | 7.14 | Cc1ncsc1-c1ccc([C@H](CO)NC(=O)[C@@H]2C[C@@H](O)CN2C(=O)[C@H](C(C)C)n2cc(-c3ccc(COc4c(-c5c(C)c(F)cc6[nH]ncc56)c(C5CC5)cc5c(N(C)[C@H]6CCNC6)nc(OC[C@H]6CCN(C)C6)nc45)cc3)nn2)cc1 (atropisomer, axis not shown) [Example 18]
6 | 51 | 7.43 | 7.62 | CCn1nccc1-c1ccc([C@H](CO)NC(=O)[C@@H]2C[C@@H](O)CN2C(=O)[C@H](C(C)C)n2cc(-c3ccc(COc4c(-c5c(C)c(F)cc6[nH]ncc56)c(C5CC5)cc5c(N(C)[C@H]6CCNC6)nc(OC[C@H]6CCCO6)nc45)cc3)nn2)nc1 (atropisomer, axis not shown) [Example 32]
7 | 47 | 7.80 | 8.15 | Cc1ncsc1-c1ccc([C@H](CO)NC(=O)[C@@H]2C[C@@H](O)CN2C(=O)[C@H](C(C)C)n2cc(-c3ccc(COc4c(-c5c(C)c(F)cc6[nH]ncc56)c(C5CC5)cc5c(N[C@H]6CCNC6)nc(OC6CCOCC6)nc45)cc3)nn2)cc1 (atropisomer, axis not shown) [Example 3]
8 | 27 | 7.80 | 7.82 | CO[C@@H](C)COc1nc(N(C)[C@H]2CCNC2)c2cc(C3CC3)c(-c3c(C)c(F)cc4[nH]ncc34)c(OCc3ccc(-c4cn([C@H](C(=O)N5C[C@H](O)C[C@H]5C(=O)N[C@@H](CO)c5ccc(-c6scnc6C)cc5)C(C)C)nn4)nc3)c2n1 (atropisomer, axis not shown) [Example 45]
9 | 37 | 7.24 | 7.41 | COCCCOc1nc(N(C)[C@H]2CCNC2)c2cc(C3CC3)c(-c3c(C)c(F)cc4[nH]ncc34)c(OCc3ccc(-c4cn([C@H](C(=O)N5C[C@H](O)C[C@H]5C(=O)N[C@@H](CO)c5ccc(-c6scnc6C)cc5)C(C)C)nn4)cc3)c2n1 (atropisomer, axis not shown) [Example 39]
10 | 59 | 8.30 | 8.30 | CO[C@@H](C)COc1cc(O[C@H]2CCNC2)c2cc(C3CC3)c(-c3c(C)c(F)cc4[nH]ncc34)c(OCc3ccc(-c4cn([C@H](C(=O)N5C[C@H](O)C[C@H]5C(=O)N[C@@H](CO)c5ccc(-c6scnc6C)cc5)C(C)C)nn4)cc3)c2n1 [Example 22]
11 | 29 | 8.05 | 8.10 | Cc1c(F)cc2[nH]ncc2c1-c1c(C2CC2)cc2c(N(C)[C@H]3CCNC3)nc(OC[C@H]3CCCO3)nc2c1OCc1ccc(-c2cn([C@H](C(=O)N3C[C@H](O)C[C@H]3C(=O)N[C@@H](CO)c3ccc(-n4cncn4)cc3)C(C)C)nn2)cc1 (atropisomer, axis not shown) [Example 41]
12 | 31 | 7.89 | 7.92 | Cc1ncsc1-c1ccc([C@H](CO)NC(=O)[C@@H]2C[C@@H](O)CN2C(=O)[C@H](C(C)C)n2cc(-c3ccc(COc4c(-c5c(C)c(F)cc6[nH]ncc56)c(C5CC5)cc5c(N(C)[C@H]6CCNC6)nc(OC[C@@H]6CCOC6)nc45)cc3)nn2)cc1 (atropisomer, axis not shown) [Example 23]
13 | 25 | 7.44 | 7.44 | Cc1ncsc1-c1ccc([C@H](CO)NC(=O)[C@@H]2C[C@@H](O)CN2C(=O)[C@H](C(C)C)n2cc(-c3ccc(COc4c(-c5c(C)c(F)cc6[nH]ncc56)c(C5CC5)cc5c(N(C)[C@H]6CCNC6)nc(OCCCF)nc45)cc3)nn2)cc1 (atropisomer, axis not shown) [Example 38]
14 | 41 | 8.15 | 8.22 | CO[C@H](COc1nc(N(C)[C@H]2CCNC2)c2cc(C3CC3)c(-c3c(C)c(F)cc4[nH]ncc34)c(OCc3ccc(-c4cn([C@H](C(=O)N5C[C@H](O)C[C@H]5C(=O)N[C@@H](CO)c5ccc(-c6scnc6C)cc5)C(C)C)nn4)cc3)c2n1)C(F)F (atropisomer, axis not shown) [Example 43]
15 | 59 | 7.70 | 7.74 | Cc1ncoc1-c1ccc([C@H](CO)NC(=O)[C@@H]2C[C@@H](O)CN2C(=O)[C@H](C(C)C)n2cc(-c3ccc(COc4c(-c5c(C)c(F)cc6[nH]ncc56)c(C5CC5)cc5c(N(C)[C@H]6CCNC6)nc(OC[C@H]6CCCO6)nc45)cc3)nn2)cc1 (atropisomer, axis not shown) [Example 31]
16 | 14 | 7.23 | 7.36 | CO[C@@H](C)COc1nc(N[C@@H]2CCNC2)c2cc(C3CC3)c(-c3c(C)c(F)cc4[nH]ncc34)c(OCc3ccc(-c4cn([C@H](C(=O)N5C[C@H](O)C[C@H]5C(=O)N[C@@H](CO)c5ccc(-c6scnc6C)cc5)C(C)C)nn4)cc3)c2n1 (atropisomer, axis not shown) [Example 51]
17 | 91 | 8.22 | 8.40 | Cc1ncsc1-c1ccc([C@H](CO)NC(=O)[C@@H]2C[C@@H](O)CN2C(=O)[C@H](C(C)C)n2cc(-c3ccc(COc4c(-c5c(C)c(F)cc6[nH]ncc56)c(C5CC5)cc5c(N(C)[C@H]6CCNC6)nc(OC[C@@H](C)C(F)F)nc45)cc3)nn2)cc1 [Example 42]
